Consider ten compounds from ChEMBL document CHEMBL1201862, “PubChem BioAssay data set” (2004).

Test systems include OVCAR-5; UACC-62; OVCAR-4; MDA-MB-435; NCI/ADR-RES; SK-MEL-5; NCI-H23; IGROV-1; OVCAR-3; SNB-19; MCF7; 786-0; RPMI-8226; RXF 393; UACC-257; SK-MEL-28; SK-OV-3; SR; NCI-H522; UO-31.
Common to all, as to experiment: inhibition of tumour cell growth, NCI panel, 48 h

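Method: 48-hour compound exposure of cells in 96-well plates, five concentrations, linear interpolation of endpoints. GI50 = concentration required for 50% inhibition of growth.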 Active and inactive are the calls of the source. Rule as the data show it: active = GI50 up to about 1.1 µM and inactive = higher.

In the case of `CC(=O)CCNc1ccc(-c2cc(-c3ccc(N(C)C)cc3)nc3ccc4ccccc4c23)cc1`, the GI50 was > 100 µM (inactive) in the experiment on OVCAR-5; > 60.8 µM (inactive) in the experiment on UACC-62; 6.52 µM (inactive) in the experiment with OVCAR-4; > 60.7 µM (inactive) with MDA-MB-435; 97.9 µM (inactive) with NCI/ADR-RES; 59.8 µM (inactive) with SK-MEL-5. Moreover, the GI50 in the experiment on NCI-H23 is > 100 µM (inactive); in the experiment with IGROV-1, 14.5 µM (inactive); in the experiment on OVCAR-3 it was 44.8 µM (inactive); in the experiment with SNB-19, > 100 µM (inactive); with MCF7, 27.1 µM (inactive); in the experiment with 786-0, 22.4 µM (inactive). Besides, the GI50 was 11.7 µM (inactive) in the experiment on RPMI-8226; 12.3 µM (inactive) in the experiment on RXF 393; > 100 µM (inactive) in the experiment on UACC-257; 34.8 µM (inactive) in the experiment with SK-MEL-28; > 100 µM (inactive) in the experiment on SK-OV-3; 7.11 µM (inactive) with SR. Further, the values for the GI50 with NCI-H522 and in the experiment with UO-31 were > 100 µM (inactive) and 23.5 µM (inactive), respectively.

`CN(C)CCc1c2c(nc3ccccc13)C(=O)c1cccnc1C2=O`: the GI50 was 1.18 µM (inactive) in the experiment on OVCAR-5; 0.175 µM (active) in the experiment with UACC-62; 0.31 µM (active) in the experiment on OVCAR-4; 0.331 µM (active) in the experiment on MDA-MB-435; 0.119 µM (active) in the experiment with NCI/ADR-RES; 0.177 µM (active) in the experiment with SK-MEL-5. The GI50 in the experiment with NCI-H23 was 0.322 µM (active); in the experiment on IGROV-1, 0.542 µM (active); in the experiment with OVCAR-3, 0.0513 µM (active); in the experiment with SNB-19, 0.652 µM (active); with MCF7, 0.122 µM (active); in the experiment with 786-0, 0.121 µM (active). Besides, the GI50 is 0.488 µM (active) in the experiment on RPMI-8226; 0.172 µM (active) in the experiment on RXF 393; 0.214 µM (active) with UACC-257; 0.492 µM (active) in the experiment on SK-MEL-28; 0.479 µM (active) in the experiment on SK-OV-3; 0.0456 µM (active) in the experiment with SR. Also, the GI50 in the experiment with NCI-H522 was 0.175 µM (active); with UO-31, 0.197 µM (active).

As for `COc1cc(/C=C/C=C2\CCC/C(=C\C=C\c3ccc(O)c(OC)c3)C2=O)ccc1O`, the GI50 in the experiment with OVCAR-5 is 22 µM (inactive); in the experiment on UACC-62 it was 7.55 µM (inactive); in the experiment with OVCAR-4, 6.27 µM (inactive); in the experiment with MDA-MB-435 it was 9.57 µM (inactive); in the experiment with NCI/ADR-RES, 12.2 µM (inactive); in the experiment on SK-MEL-5, 10.3 µM (inactive). Also, the GI50 is 11.7 µM (inactive) with NCI-H23; 6.7 µM (inactive) with IGROV-1; 9.12 µM (inactive) in the experiment with OVCAR-3; 31.7 µM (inactive) in the experiment with SNB-19; 5.24 µM (inactive) in the experiment on MCF7; 10 µM (inactive) in the experiment with 786-0. Moreover, the GI50 is 5.4 µM (inactive) in the experiment with RPMI-8226; 10.8 µM (inactive) with RXF 393; 12.1 µM (inactive) in the experiment with UACC-257; 12.6 µM (inactive) in the experiment with SK-MEL-28; 5.81 µM (inactive) in the experiment on SK-OV-3; 1.69 µM (inactive) in the experiment with SR. Further, the values for the GI50 in the experiment on NCI-H522 and with UO-31 were 0.895 µM (active) and 12 µM (inactive), respectively.

Turning to `C/C(=C\COP(=O)(O)OP(=O)(O)O)CCCOCc1ccccc1`, the GI50 in the experiment with OVCAR-5 is > 100 µM (inactive); in the experiment on UACC-62, > 100 µM (inactive); with OVCAR-4, > 100 µM (inactive); in the experiment on MDA-MB-435, > 100 µM (inactive); in the experiment with NCI/ADR-RES it was > 100 µM (inactive); in the experiment with SK-MEL-5, 46.5 µM (inactive). For the same compound, the GI50 with NCI-H23, with IGROV-1, in the experiment with OVCAR-3, in the experiment with SNB-19, in the experiment with MCF7 and with 786-0 was > 100 µM (inactive) in each case. The GI50 was 0.207 µM (active) in the experiment with RPMI-8226; > 100 µM (inactive) with RXF 393; 38.4 µM (inactive) with UACC-257; > 100 µM (inactive) in the experiment on SK-MEL-28; > 100 µM (inactive) in the experiment on SK-OV-3; > 100 µM (inactive) in the experiment with SR. In addition, the GI50 in the experiment on NCI-H522 and with UO-31 was > 100 µM (inactive) throughout.

For `COC(=O)[C@H](C)N1C(=O)N[C@@H](C(C)C)C1=O`, the GI50 with OVCAR-5, in the experiment with UACC-62, in the experiment with OVCAR-4, in the experiment on MDA-MB-435, in the experiment on NCI/ADR-RES and in the experiment on SK-MEL-5 was > 100 µM (inactive) throughout. The GI50 in the experiment with NCI-H23, in the experiment with IGROV-1, with OVCAR-3, with SNB-19, in the experiment with MCF7 and in the experiment on 786-0 was > 100 µM (inactive) throughout. Further, the GI50 in the experiment with RPMI-8226, in the experiment on RXF 393, in the experiment with UACC-257, in the experiment with SK-MEL-28, with SK-OV-3 and in the experiment with SR was > 100 µM (inactive) in each case. Moreover, the GI50 with NCI-H522 and in the experiment on UO-31 was > 100 µM (inactive) each time.

For the compound `Cc1ccc2c(c1)C(=O)C(Cc1ccccc1C(=O)O)C2` (stereo not given), the GI50 in the experiment with OVCAR-5, in the experiment on UACC-62, in the experiment on OVCAR-4, with MDA-MB-435, in the experiment with NCI/ADR-RES and in the experiment with SK-MEL-5 was > 100 µM (inactive) throughout. The GI50 with NCI-H23, with IGROV-1, with OVCAR-3, in the experiment on SNB-19, with MCF7 and in the experiment on 786-0 was > 100 µM (inactive) throughout. Further, the GI50 in the experiment on RPMI-8226, with RXF 393, in the experiment with UACC-257, in the experiment on SK-MEL-28, in the experiment on SK-OV-3 and in the experiment with SR was > 100 µM (inactive) each time. The GI50 in the experiment with NCI-H522 and in the experiment with UO-31 was > 100 µM (inactive) in each case.

`CN1C[C@@H]2CCCN2P1Oc1cccc2cccnc12` (stereo not given in full): the GI50 in the experiment with OVCAR-5 is 32.6 µM (inactive); with UACC-62, 39.3 µM (inactive); in the experiment with OVCAR-4, 32.8 µM (inactive); with MDA-MB-435, 45.6 µM (inactive); with NCI/ADR-RES, 19.8 µM (inactive); in the experiment with SK-MEL-5, 41.5 µM (inactive). For the same compound, the GI50 in the experiment on NCI-H23 was 17.9 µM (inactive); with IGROV-1, 32.9 µM (inactive); in the experiment with OVCAR-3, 23.4 µM (inactive); with SNB-19 it was > 100 µM (inactive); in the experiment on MCF7, 12 µM (inactive); in the experiment on 786-0, > 100 µM (inactive). For the same compound, the GI50 is 13.2 µM (inactive) in the experiment with RPMI-8226; > 100 µM (inactive) in the experiment with RXF 393; 29.4 µM (inactive) in the experiment on UACC-257; 73.1 µM (inactive) in the experiment on SK-MEL-28; > 100 µM (inactive) with SK-OV-3; 25.7 µM (inactive) with SR. The GI50 in the experiment with NCI-H522 was 18.1 µM (inactive); in the experiment on UO-31 it was 34.9 µM (inactive).

On to `NC1=NC(c2ccc(Cl)cc2)N(c2ccc(S(=O)(=O)Nc3ncccn3)cc2)C(N)=N1` (stereo not given), for which the GI50 with OVCAR-5, in the experiment with UACC-62, in the experiment on OVCAR-4, in the experiment on MDA-MB-435, with NCI/ADR-RES and in the experiment with SK-MEL-5 was > 100 µM (inactive) each time. Besides, the GI50 in the experiment on NCI-H23, in the experiment on IGROV-1, with OVCAR-3, with SNB-19, in the experiment on MCF7 and in the experiment with 786-0 was > 100 µM (inactive) each time. The GI50 in the experiment on RPMI-8226, in the experiment on RXF 393, in the experiment on UACC-257, in the experiment on SK-MEL-28, in the experiment with SK-OV-3 and with SR was > 100 µM (inactive) throughout. Further, the GI50 with NCI-H522 and with UO-31 was > 100 µM (inactive) throughout.

`O=C(O)c1cc(-c2ccncc2)nc2ccccc12`: the GI50 in the experiment with OVCAR-5, in the experiment on UACC-62, with OVCAR-4, in the experiment on MDA-MB-435, with NCI/ADR-RES and in the experiment with SK-MEL-5 was > 100 µM (inactive) each time. Also, the GI50 in the experiment with NCI-H23, in the experiment on IGROV-1, with OVCAR-3, with SNB-19, in the experiment with MCF7 and in the experiment with 786-0 was > 100 µM (inactive) throughout. For the same compound, the GI50 in the experiment with RPMI-8226, in the experiment on RXF 393, in the experiment with UACC-257, with SK-MEL-28, with SK-OV-3 and with SR was > 100 µM (inactive) in each case. For the same compound, the GI50 in the experiment on NCI-H522 and with UO-31 was > 100 µM (inactive) throughout.

With `O=C(/C=C/c1ccccc1)Oc1ccc(C(=O)/C=C/c2ccccc2)cc1`, the GI50 in the experiment with OVCAR-5 is 13.7 µM (inactive); in the experiment on UACC-62, 12.9 µM (inactive); in the experiment with OVCAR-4, 25.8 µM (inactive); with MDA-MB-435 it was 4.65 µM (inactive); with NCI/ADR-RES, 12.1 µM (inactive); with SK-MEL-5, 16.9 µM (inactive). The GI50 in the experiment with NCI-H23 is 10.6 µM (inactive); in the experiment on IGROV-1 it was 11.5 µM (inactive); in the experiment with OVCAR-3, 10.3 µM (inactive); in the experiment with SNB-19 it was 15.1 µM (inactive); in the experiment on MCF7, 6.08 µM (inactive); with 786-0, 6.53 µM (inactive). For the same compound, the GI50 was 3.25 µM (inactive) in the experiment on RPMI-8226; 23.1 µM (inactive) in the experiment with RXF 393; 13.6 µM (inactive) in the experiment with UACC-257; 12.4 µM (inactive) in the experiment with SK-MEL-28; 21.4 µM (inactive) in the experiment with SK-OV-3; 2.1 µM (inactive) in the experiment with SR. Further, the results for the GI50 in the experiment on NCI-H522 and in the experiment with UO-31 were 11.4 µM (inactive) and 10.4 µM (inactive), respectively.
